Measurements: paper PMC3857149, “Identification of Three Antiviral Inhibitors against Japanese Encephalitis Virus from Library of Pharmacologically Active Compounds 1280” (PLoS ONE, 2013)

Columns and labels:
JEV [1] = experiment: Western blotting of JEV envelope (E) protein expression in infected BHK-21 cells; type: cell-based, Japanese encephalitis virus; conditions: MOI 0.01, 48 h, normalized to GAPDH
Description: BHK-21 cells in 12-well plates were infected with JEV at MOI 0.01. The compounds were then added to cells at final concentrations of 10 and 20 µM. After incubation for 48 h, expression of JEV envelope (E) protein was detected by western blotting. The cells were collected after trypsin digestion and washed in PBS. The cell suspension was mixed with an equal volume of 2×SDS sample buffer. The proteins were electrophoresed in 12% SDS-PAGE and transferred to a nitrocellulose filter membrane (Millipore, Darmstadt, Germany). Western blotting was performed with JEV E protein-specific monoclonal antibody (Mab; 1∶500, constructed in our laboratory) or GAPDH-specific Mab (1∶1000; Proteintech, Chicago, IL, USA) as the primary antibodies, followed by addition of horseradish-peroxidase-conjugated goat anti-mouse IgG (Boster, Wuhan, China) as the secondary antibody. Finally, the protein blots were detected with SuperSignal West Pico Chemiluminescent Substrate (Thermo Scientific, Rockford, IL, USA) and imaged by a MF-ChemiBIS 3.2 (DNR Bio-Imaging Systems, Mahale Hahamisha, Israel). The expression of E and GAPDH was quantified by gray-value analysis using software ImageJ. The expression of E protein was normalized by the expression of GAPDH and the changes of E expression were calculated by comparing to the non-compound treated group.

JEV [2] = experiment: Indirect immunofluorescence assay (IFA, anti-NS5) in infected BHK-21 cells; type: cell-based, Japanese encephalitis virus; conditions: MOI 0.01, 48 h post-infection; for JEV-negative cells: 5 µM compound; for JEV replication / JEV-positive cells (IFA): 20 µM compound
Description: BHK-21 cells were seeded in 12-well plates and inoculated with JEV at MOI 0.01 after 12 h incubation. The compounds were added to cells at concentrations of 5 or 20 µM. After incubation for a further 48 h, virus replication in the cells was evaluated by IFA. The cells were fixed in formaldehyde for 5 min and were incubated with anti-NS5 Mab (1∶500) and then FITC-conjugated goat anti-mouse antibody (Boster) for 30 min respectively. Finally, the cells were stained with DAPI (Sigma-Aldrich) and imaged by a fluorescence microscope (Olympus IX70; Olympus, Tokyo, Japan).

[3] = cited from earlier work
JEV (P3 strain) = experiment: CPE-based EC50 assay, JEV-infected BHK-21 cells; type: cell-based, Japanese encephalitis virus; conditions: for EC50: Japanese encephalitis virus, BHK-21, 120 h; for selectivity index: from CC50 and EC50 in BHK-21 cells
Description: (§1) Cell viability was evaluated by Celltiter-Glo Luminescent Cell Viability Assay reagent (Promega, Madison, WI, USA) following the manufacturer's protocol. An equal volume of Celltiter-Glo reagents was added to the cells in 96-well white plates (Corning, Tewksbury, MA, USA) and mixed for 2 min on an orbital shaker and incubated for a further 10 min at room temperature. The luminescence of each well was measured by a 1450 MicroBeta TriLux (Perkin Elmer, Waltham, MA, USA). Percentage of cell viability was calculated as follows: Percentage of cell viability = 100× (luminescence of experimental group/luminescence of control group).
BHK-21 cells were seeded onto 96-well plates at 10,000 cells per well. After 12 h incubation, the culture supernatant was replaced with maintenance medium. One microliter of each compound was added to 99 µL maintenance medium in the first well, followed by twofold serial dilutions for two wells. After full mixing in the third well, 50 µL medium was discarded. Then, 50 µL maintenance medium containing 0.02 MOI JEV was added to each well. The plates were subjected to 30 s horizontal shaking to achieve thorough mixing. Three wells of mock-infected cells as well as three wells of JEV-infected cells containing 1% DMSO were set on each plate as controls. After 120 h incubation, the percentage of CPE inhibition was calculated as previously described: Percentage of inhibition = (luminescence of experimental group – average luminescence of virus control) / (average luminescence of cell control – average luminescence of virus control) ×100.
BHK-21 cells were seeded in 96-well white plates at 10,000 cells per well. Twelve hours later, the growth medium was replaced with maintenance medium containing 0.01 MOI JEV as well as different concentrations of compounds. Cell incubation was continued for 120 h, and the percentage of inhibition was measured as described above. The EC50 values were calculated by nonlinear regression analysis.

[4] = Cytotoxicity of compounds (Celltiter-Glo cell viability); type: cell-based; conditions: hamster; BHK-21 cells, 120 h incubation; read-out: CC50 (50% cytotoxicity concentration)
Description: as §1
BHK-21 cells were seeded in 96-well white plates at 10,000 cells per well. After 12 h incubation for cell attachment, different concentrations of compounds were added to the cells. Cell viability was tested as described above after 120 h incubation. The 50% cytotoxicity concentration (CC50) was calculated by nonlinear regression analysis.

JEV [5] = experiment: Plaque reduction assay; type: cell-based, Japanese encephalitis virus
Description: BHK-21 cells were plated in 96-well plates at a density of 10,000 cells per well and grown for 12 h for cell attachment. The cells were infected with JEV at MOI 0.01 in the presence of different concentrations (20, 15, 10, and 5 µM) of compounds. Each concentration was assayed in triplicate. Forty-eight hours post-infection, the viruses in each group were harvested by freezing/thawing three times and mixed in a tube. Then, 50 µL virus suspension was inoculated into BHK-21 cells in 12-well plates for the plaque assay, as previously described.

[6] = cited from earlier work; remark: listed apart in the source

In the case of COCCOC(=O)C1=C(C)NC(C)=C(C(=O)OC/C=C/c2ccccc2)C1c1cccc([N+](=O)[O-])c1 (centres unmarked) [cilnidipine], the “E expression decrease (gray-value analysis)” value (shortened to “E expression decrease”) (JEV [1]; 10 µM compound) is reported as about 56%, the “E expression decrease” value (JEV [1]; 20 µM compound) is reported as about 75% and the JEV-negative cells (JEV [2]) is reported as about 60%. For the same molecule, the “JEV replication / JEV-positive cells (IFA)” value (JEV [2]) was “Absolute inhibition of JEV replication”, the MLD50 [3] was over 5000 mg/kg and the EC50 (JEV (P3 strain)) was 6.52 µM. For the same molecule, the selectivity index (JEV (P3 strain)) was 30.67, the CC50 at 120 h [4] was over 200 µM and the “replication of JEV” value (JEV [5]; 20 or 15 µM compound) was “almost completely inhibited”.
For O=C(Nc1ccc([N+](=O)[O-])cc1Cl)c1cc(Cl)ccc1O [niclosamide], the “E expression decrease” value (JEV [1]; 10 µM compound) was “about 85%”, the JEV-negative cells (JEV [2]) was about 30% and the “JEV replication / JEV-positive cells (IFA)” value (JEV [2]) was “few cells were JEV-positive”. It also gave an EC50 (JEV (P3 strain)) of 5.8 µM, a selectivity index (JEV (P3 strain)) of 7.49 and a CC50 at 120 h [4] of 43.3 µM.
For CCCCCCN(CCCCCC)C(=O)Cc1c(-c2ccc(F)cc2)[nH]c2ccccc12 [FGIN-1-27, N,N-dihexyl-2-(4-fluorophenyl)indole-3-acetamide], the “ability to enter the brain” value [6] is given as “had the ability to enter the brain”, the JEV-negative cells (JEV [2]) is given as “about 80%” and the “JEV replication / JEV-positive cells (IFA)” value (JEV [2]) is given as “few cells were JEV-positive”. The EC50 (JEV (P3 strain)) was 3.21 µM, the selectivity index (JEV (P3 strain)) was 38.79 and the CC50 at 120 h [4] was 124 µM. It also gave a number of plaques (JEV [5]; 10 µM compound, 48 h, MOI 0.01) of under 20 and a virus titer (JEV [5]; 10 µM compound, 48 h, MOI 0.01, untreated 2.7×10^6 PFU/mL) of under 400 PFU/mL.
